# Source: patent US7435837B2, “Dihydrobenzofuranyl alkanamine derivatives and methods for using same” (Wyeth, priority 2003, dated 2008)
# Columns and labels:
# [1] = target: T1, human 5-hydroxytryptamine-2C (h5-HT2C) receptor (Homo sapiens, UniProt P28335); assay: [125I]DOI binding to membranes of CHO cells expressing the human 5-HT2C receptor; settings: [125I]DOI radioligand, CHO cell membranes, room temperature 60 min; read-out: 5-HT2C Affinity Ki
# T1 construct: expressed in transfected cells; host or cells: CHO (Chinese Hamster Ovary) cells; membranes
# T1 sequence (P28335 33-458): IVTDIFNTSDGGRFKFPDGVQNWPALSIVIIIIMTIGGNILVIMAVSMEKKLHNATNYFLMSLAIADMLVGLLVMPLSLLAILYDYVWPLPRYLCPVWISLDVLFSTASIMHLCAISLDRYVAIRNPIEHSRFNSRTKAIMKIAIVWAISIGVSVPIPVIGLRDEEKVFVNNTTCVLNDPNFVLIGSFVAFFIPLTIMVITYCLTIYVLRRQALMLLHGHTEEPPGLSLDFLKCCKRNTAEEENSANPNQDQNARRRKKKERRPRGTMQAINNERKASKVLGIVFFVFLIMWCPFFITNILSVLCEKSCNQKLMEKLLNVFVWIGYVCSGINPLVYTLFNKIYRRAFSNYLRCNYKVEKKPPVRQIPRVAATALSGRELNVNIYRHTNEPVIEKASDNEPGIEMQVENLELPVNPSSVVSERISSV
# human 5-HT2C receptor = target: T2, human 5-HT2C receptor (Homo sapiens, UniProt P28335); assay: 5-HT2C receptor-stimulated calcium mobilization (FLIPR) in CHO cells; format: cell-based; settings: for EC50: calcium mobilization, CHO cells stably expressing human 5-HT2C, read-out: 5-HT2C Function EC50; for 5-HT2C Function Emax (%) / Emax: percentage of the response observed with a maximally effective concentration of 5-HT; for Emax: CHO, read-out: 5-HT2C Function Emax (%);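 on all read-outs here: Fluo-3-AM fluorescence read on FLIPR every 1 s, agonist added after 10 baseline reads, response taken as peak minus lowest raw fluorescence count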
# T2 sequence (P28335 33-458): T1 sequence (P28335 33-458)
Ki [1],EC50 (human 5-HT2C receptor),5-HT2C Function Emax (%) (human 5-HT2C receptor),Emax (human 5-HT2C receptor),Compound
0.2 nM,6 nM,90%,–,"CNCC1Cc2cc(F)cc(-c3ccccc3C)c2O1 (single isomer, unassigned; (+)) [Example 442, (+)-{[5-fluoro-7-(2-methylphenyl)-2,3-dihydro-1-benzofuran-2-yl]methyl}methylamine]"
0.27 nM,0.8 nM,–,100%,"CNCC1Cc2cc(F)cc(-c3cc(Cl)ccc3Cl)c2O1 (single isomer, unassigned; (+)) [Example 450, (+)-{[5-fluoro-7-(2,5-dichlorophenyl)-2,3-dihydro-1-benzofuran-2-yl]methyl}methylamine]"
0.06 nM,3 nM,–,100%,"CNCC1Cc2cc(C)cc(-c3cc(Cl)ccc3Cl)c2O1 (single isomer, unassigned; (+)) [Example 487, (+)-{[7-(2,5-dichlorophenyl)-5-methyl-2,3-dihydro-1-benzofuran-2-yl]methyl}methylamine]"
0.55 nM,17 nM,–,90%,"NCC1Cc2cc(F)cc(-c3c(Cl)cccc3Cl)c2O1 (single isomer, unassigned; (+)) [Example 551, (+)-{[7-(2,6 dichlorophenyl)-5-fluoro-2,3-dihydro-1-benzofuran-2-yl]methyl}amine]"
2.7 nM,21 nM,80%,–,"CNCC1Cc2cc(OC)cc(-c3c(C)cccc3C)c2O1 (single isomer, unassigned; (+)) [Example 561, (+)-{[7-(2,6-dimethylphenyl)-5-methoxy-2,3-dihydro-1-benzofuran-2-yl]methyl}methylamine]"
0.48 nM,2 nM,–,90%,"CNCC1Cc2cc(Cl)cc(-c3cc(Cl)ccc3Cl)c2O1 (single isomer, unassigned; (+)) [Example 562, (+)-{[5-chloro-7-(2,5-dichlorophenyl)-2,3-dihydro-1-benzofuran-2-yl]methyl}methylamine]"
10 nM,194 nM,85%,–,"NCC1Cc2cccc(C3CCCC3)c2O1 (single isomer, unassigned; (-)) [Example 9, (−)-(7-cyclopentyl-2,3-dihydro-1-benzofuran-2-yl)methylamine]"
66 nM,100 nM,70%,–,"NCC1Cc2cccc(Cc3ccccc3)c2O1 (single isomer, unassigned; (-)) [Example 17, (−)-1-(7-benzyl-2,3-dihydro-1-benzofuran-2-yl)methanamine]"
2 nM,66 nM,100%,–,"CC(C)c1cccc2c1OC(CN)C2 (single isomer, unassigned; (-)) [Example 19, (−)-(7-isopropyl-2,3-dihydro-1-benzofuran-2-yl)methylamine]"
5 nM,25 nM,–,90%,"Cc1c(Cl)cc(C(C)C)c2c1CC(CN)O2 (single isomer, unassigned; (-)) [Example 22, (−)-1-(5-chloro-7-isopropyl-4-methyl-2,3-dihydro-1-benzofuran-2-yl)methanamine]"
18 nM,10 nM,–,90%,"CC(C)(C)c1cccc2c1OC(CN)C2 (single isomer, unassigned; (-)) [Example 25, (−)-1-(7-tert-butyl-2,3-dihydro-1-benzofuran-2-yl)methanamine]"
16 nM,77 nM,–,90%,"CC(C)(C)c1cc(Cl)cc2c1OC(CN)C2 (single isomer, unassigned; (-)) [Example 28, (−)-1-(7-tert-butyl-5-chloro-2,3-dihydro-1-benzofuran-2-yl)methanamine]"
56 nM,540 nM,–,100%,"NCC1Cc2cccc(-c3ccccc3)c2O1 (single isomer, unassigned; (-)) [Example 38, (−)-1-(7-phenyl-2,3-dihydro-1-benzofuran-2-yl)methanamine]"
100 nM,748 nM,80%,–,"Cc1cccc(-c2cccc3c2OC(CN)C3)c1 (single isomer, unassigned; (-)) [Example 43, (−)-1-[7-(3-methylphenyl)-2,3-dihydro-1-benzofuran-2-yl]methanamine]"
10 nM,132 nM,80%,–,"Cc1ccccc1-c1cccc2c1OC(CN)C2 (single isomer, unassigned; (-)) [Example 49, (−)-1-[7-(2-methylphenyl)-2,3-dihydro-1-benzofuran-2-yl]methanamine]"
0.5 nM,9 nM,–,85%,"NCC1Cc2cccc(-c3ccccc3C(F)(F)F)c2O1 (single isomer, unassigned; (-)) [Example 54, (−)-1-{7-[2-(trifluoromethyl)phenyl]-2,3-dihydro-1-benzofuran-2-yl}methanamine]"
1 nM,12 nM,–,80%,"Cc1cccc(C)c1-c1cccc2c1OC(CN)C2 (single isomer, unassigned; (-)) [Example 57, (−)-1-[7-(2,6-dimethylphenyl)-2,3-dihydro-1-benzofuran-2-yl]methanamine]"
83 nM,5760 nM,70%,–,"NCC1Cc2cccc(-c3cccc(Cl)c3)c2O1 (single isomer, unassigned; (-)) [Example 67, (−)-1-[7-(3-chlorophenyl)-2,3-dihydro-1-benzofuran-2-yl]methanamine]"
33 nM,511 nM,85%,–,"Cc1ccc(-c2cccc3c2OC(CN)C3)cc1 (single isomer, unassigned; (-)) [Example 72, (−)-1-[7-(4-methylphenyl)-2,3-dihydro-1-benzofuran-2-yl]methanamine]"
41 nM,161 nM,90%,–,"NCC1Cc2cccc(-c3ccc(Cl)cc3)c2O1 (single isomer, unassigned; (-)) [Example 78, (−)-1-[7-(4-chlorophenyl)-2,3-dihydro-1-benzofuran-2-yl]methanamine]"
24 nM,294 nM,50%,–,"COc1ccc(-c2cccc3c2OC(CN)C3)cc1 (single isomer, unassigned; (-)) [Example 81, (−)-1-[7-(4-methoxyphenyl)-2,3-dihydro-1-benzofuran-2-yl]methanamine]"
75 nM,963 nM,90%,–,"NCC1Cc2cc(Cl)cc(-c3ccccc3)c2O1 (single isomer, unassigned; (-)) [Example 86, (−)-1-(5-chloro-7-phenyl-2,3-dihydro-1-benzofuran-2-yl)methanamine]"
5 nM,45 nM,–,100%,"NCC1Cc2cc(Cl)cc(-c3ccsc3)c2O1 (single isomer, unassigned; (-)) [Example 91, (−)-(5-chloro-7-thien-3-yl-2,3-dihydro-1-benzofuran-2-yl)methylamine]"
4 nM,577 nM,60%,–,"Cc1ccccc1-c1cc(Cl)cc2c1OC(CN)C2 (single isomer, unassigned; (-)) [Example 97, (−)-1-[5-chloro-7-(2-methylphenyl)-2,3-dihydro-1-benzofuran-2-yl]methanamine]"
8 nM,32 nM,65%,–,"NCC1Cc2cc(F)cc(-c3ccccc3Cl)c2O1 (single isomer, unassigned; (-)) [Example 102, (−)-1-[7-(2-chlorophenyl)-5-fluoro-2,3-dihydro-1-benzofuran-2-yl]methanamine]"
16 nM,91 nM,50%,–,"Cc1ccccc1-c1cc(F)cc2c1OC(CN)C2 (single isomer, unassigned; (-)) [Example 106, (−)-1-[5-fluoro-7-(2-methylphenyl)-2,3-dihydro-1-benzofuran-2-yl]methanamine]"
0.3 nM,0.2 nM,–,100%,"NCC1Cc2cccc(-c3ccccc3Cl)c2O1 (single isomer, unassigned; (-)) [Example 129, (−)-1-[7-(2-chlorophenyl)-2,3-dihydro-1-benzofuran-2-yl]methanamine]"
20 nM,1480 nM,50%,–,"NCC1Cc2cccc(-c3cccc(F)c3)c2O1 (single isomer, unassigned; (-)) [Example 132, (−)-1-[7-(3-fluorophenyl)-2,3-dihydro-1-benzofuran-2-yl]methanamine]"
7.4 nM,3800 nM,60%,–,"NCC1Cc2cccc(-c3ccc(C(F)(F)F)cc3)c2O1 (single isomer, unassigned; (-)) [Example 138, (−)-1-{7-[4-(trifluoromethyl)phenyl]-2,3-dihydro-1-benzofuran-2-yl}methanamine]"
0.07 nM,0.03 nM,–,90%,"NCC1Cc2cccc(-c3c(Cl)cccc3Cl)c2O1 (single isomer, unassigned; (-)) [Example 141, (−)-1-[7-(2,6-dichlorophenyl)-2,3-dihydro-1-benzofuran-2-yl]methanamine]"
